Conditions: pH 7.4

| Solubility (in words) | Substance |
| --- | --- |
| less soluble | Ac- RGEaWmYlKNNLSETmMsNmWGR- NH2 [AP6] |
| less soluble | Ac- MNWESkGEwlRMRYGtmLSNGnM- NH2 [Design P2] |

Source: article PMC4884539 (Journal of molecular biology, 2016)
